The experiment addresses HiBit-KRAS^G12C (Homo sapiens, UniProt P01116, G12C). The experiment is described as follows: HiBit degradation assay in SW1573 HiBit-KRas^G12C cells. To be noted: 0.1% DMSO, 24 hours; for Dmax: SW1573, SW1573 HiBit-KRas^G12C, read-out: KRas^G12C-HiBit (SW1573; 0.1% DMSO) Dmax**; for DC50: SW1573 HiBit-KRas^G12C, read-out: KRas^G12C-HIBit (SW1573; 0.1% DMSO) DC50*. Further details: expressed in transfected cells; host or cells: SW1573 (clone E6), modified pcDNA3.1 vector, TK promoter. Type of experiment: cell-based. In a few lines: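 HiBit-KRAS G12C degradation was measured after a 24 h compound exposure (titrated 10 μM–20 nM) in engineered SW1573 cells. Lytic HiBit luminescence, expressed relative to DMSO controls, yielded DC50 and Dmax from 4-parameter fits. Concentrations causing ≥50% loss in alamar blue viability were omitted as cytotoxic.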
(In general: With HiBiT, luminescence reflects the tagged protein that the partner subunit can reach.)

We go through 9 compounds from patent US20220370416A1, “COMPOUNDS AND METHODS FOR TARGETED DEGRADATION OF KRAS” (Arvinas Operations, Inc., priority 2020, published 2022).

SMILES strings stand for the structures. Where only a bound is given, the exact number is not on record here.

Sequence of HiBit-KRAS^G12C (P01116 1-186 isoform P01116-2 G12C limits assumed): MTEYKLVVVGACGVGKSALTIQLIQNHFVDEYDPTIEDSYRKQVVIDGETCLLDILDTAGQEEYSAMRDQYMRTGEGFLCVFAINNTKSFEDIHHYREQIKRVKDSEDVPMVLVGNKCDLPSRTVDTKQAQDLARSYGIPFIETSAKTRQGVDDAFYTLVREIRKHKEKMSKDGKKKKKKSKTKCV

Turning to `C=CC(=O)N1CCN(c2nc(O[C@H](C)CN3CC(COCC(=O)N[C@H](C(=O)N4C[C@H](O)C[C@H]4C(=O)N[C@@H](C)c4ccc(-c5scnc5C)cc4)C(C)(C)C)C3)nc3c(F)c(-c4cc(O)cc5ccccc45)c(Cl)cc23)CC1` [Compound 42, (2S,4R)-1-[(2S)-2-[2-({1-[(2R)-2-{[6-chloro-8-fluoro-7-(3-hydroxynaphthalen-1-yl)-4-[4-(prop-2-enoyl)piperazin-1-yl]quinazolin-2-yl]oxy}propyl]azetidin-3-yl}methoxy)acetamido]-3,3-dimethylbutanoyl]-4-hydroxy-N-[(1S)-1-[4-(4-methyl-1,3-thiazol-5-yl)phenyl]ethyl]pyrrolidine-2-carboxamide], the Dmax is under 35% and the DC50 was over 1 µM.

As to `C=CC(=O)N1CCN(c2nc(O[C@H](C)CN3CCC(CN(C)[C@H]4C[C@@H](OCC(=O)N[C@H](C(=O)N5C[C@H](O)C[C@H]5C(=O)N[C@@H](C)c5ccc(-c6scnc6C)cc5)C(C)(C)C)C4)CC3)nc3c(F)c(-c4cc(O)cc5ccccc45)c(Cl)cc23)CC1` [Compound 47, (2S,4R)-1-[(2S)-3,3-dimethyl-2-(2-[(1s,3s)-3-[({1-[(2R)-2-{[6-chloro-8-fluoro-7-(3-hydroxynaphthalen-1-yl)-4-[4-(prop-2-enoyl)piperazin-1-yl]quinazolin-2-yl]oxy}propyl]piperidin-4-yl}methyl)(methyl)amino]cyclobutoxy]acetamido}butanoyl]-4-hydroxy-N-[(1S)-1-[4-(4-methyl-1,3-thiazol-5-yl)phenyl]ethyl]pyrrolidine-2-carboxamide], the DC50 was over 1 µM.

On to `C=CC(=O)N1CCN(c2nc(O[C@H](C)CN3CCC(OCCOCCOc4cc(-c5scnc5C)ccc4CNC(=O)[C@@H]4C[C@@H](O)CN4C(=O)[C@H](c4cc(C)no4)C(C)C)CC3)nc3c(F)c(-c4cc(O)cc5ccccc45)c(Cl)cc23)CC1` [Compound 71, (2S,4R)-N-[(2-{2-[2-({1-[(2R)-2-{[6-chloro-8-fluoro-7-(3-hydroxynaphthalen-1-yl)-4-[4-(prop-2-enoyl)piperazin-1-yl]quinazolin-2-yl]oxy}propyl]piperidin-4-yl}oxy)ethoxy]ethoxy}-4-(4-methyl-1,3-thiazol-5-yl)phenyl)methyl]-4-hydroxy-1-[(2S)-3-methyl-2-(3-methyl-1,2-oxazol-5-yl)butanoyl]pyrrolidine-2-carboxamide], for which the Dmax is under 35% and the DC50 lay in the range of 0.1 to 1 µM.

In the case of `C=CC(=O)N1CCN(c2nc(O[C@H](C)CN3CCC(OCCOCCOCCOCCOCCOCCOCCOCCOCCOCCOCC(=O)N[C@H](C(=O)N4C[C@H](O)C[C@H]4C(=O)N[C@@H](C)c4ccc(-c5scnc5C)cc4)C(C)(C)C)CC3)nc3c(F)c(-c4cc(O)cc5ccccc45)c(Cl)cc23)CC1` [Compound 83, (2S,4R)-1-[(2S)-2-[32-({1-[(2R)-2-{[6-chloro-8-fluoro-7-(3-hydroxynaphthalen-1-yl)-4-[4-(prop-2-enoyl)piperazin-1-yl]quinazolin-2-yl]oxy}propyl]piperidin-4-yl}oxy)-3,6,9,12,15,18,21,24,27,30-decaoxadotriacontanamido]-3,3-dimethylbutanoyl]-4-hydroxy-N-[(1S)-1-[4-(4-methyl-1,3-thiazol-5-yl)phenyl]ethyl]pyrrolidine-2-carboxamide], the DC50 was over 1 µM.

For the compound `C=CC(=O)N1CCN(c2nc(OCCN3CCC(OCCOCC(=O)N[C@H](C(=O)N4C[C@H](O)C[C@H]4C(=O)N[C@@H](C)c4ccc(-c5scnc5C)cc4)C(C)(C)C)CC3)nc3c(F)c(-c4cccc5cccc(C)c45)c(Cl)cc23)C[C@@H]1CC#N` [Compound 23, (2S,4R)-1-[(2S)-2-{2-[2-({1-[2-({6-chloro-4-[(3S)-3-(cyanomethyl)-4-(prop-2-enoyl)piperazin-1-yl]-8-fluoro-7-(8-methylnaphthalen-1-yl)quinazolin-2-yl}oxy)ethyl]piperidin-4-yl}oxy)ethoxy]acetamido}-3,3-dimethylbutanoyl]-4-hydroxy-N-[(1S)-1-[4-(4-methyl-1,3-thiazol-5-yl)phenyl]ethyl]pyrrolidine-2-carboxamide], the DC50 is over 1 µM.

`C=CC(=O)N1CCN(c2nc(OC[C@@H]3C[C@@H](OCCOCCOCCOCCOCCOCCOCCOCCOCCOCCOCC(=O)N[C@H](C(=O)N4C[C@H](O)C[C@H]4C(=O)N[C@@H](C)c4ccc(-c5scnc5C)cc4)C(C)(C)C)CN3C)nc3c2CCN(c2cccc4ccccc24)C3)C[C@@H]1CC#N` [Compound 73, (2S,4R)-1-[(2S)-2-(32-{[(3R,5S)-5-[({4-[(3S)-3-(cyanomethyl)-4-(prop-2-enoyl)piperazin-1-yl]-7-(naphthalen-1-yl)-5H,6H,7H,8H-pyrido[3,4-d]pyrimidin-2-yl}oxy)methyl]-1-methylpyrrolidin-3-yl]oxy}-3,6,9,12,15,18,21,24,27,30-decaoxadotriacontanamido)-3,3-dimethylbutanoyl]-4-hydroxy-N-[(1S)-1-[4-(4-methyl-1,3-thiazol-5-yl)phenyl]ethyl]pyrrolidine-2-carboxamide]: the DC50 is over 1 µM.

Take `C=CC(=O)N1CCN(c2nc(O[C@H](C)CN3CCC(OCCOCCOCCOCCOc4cc(-c5scnc5C)ccc4CNC(=O)[C@@H]4C[C@@H](O)CN4C(=O)[C@@H](c4cc(C)no4)C(C)C)CC3)nc3c(F)c(-c4cc(O)cc5ccccc45)c(Cl)cc23)CC1` [Compound 76, (2S,4R)-N-({2-[2-(2-{2-[2-({1-[(2R)-2-{[6-chloro-8-fluoro-7-(3-hydroxynaphthalen-1-yl)-4-[4-(prop-2-enoyl)piperazin-1-yl]quinazolin-2-yl]oxy}propyl]piperidin-4-yl}oxy)ethoxy]ethoxy}ethoxy)ethoxy]-4-(4-methyl-1,3-thiazol-5-yl)phenyl}methyl)-4-hydroxy-1-[(2R)-3-methyl-2-(3-methyl-1,2-oxazol-5-yl)butanoyl]pyrrolidine-2-carboxamide]: the DC50 is over 1 µM.

With `C=CC(=O)N1CCN(c2nc(O[C@H](C)CN3CCC(OCCOCCOCCOCCOCCOc4cc(-c5scnc5C)ccc4CNC(=O)[C@@H]4C[C@@H](O)CN4C(=O)[C@H](c4cc(C)no4)C(C)C)CC3)nc3c(F)c(-c4cc(O)cc5ccccc45)c(Cl)cc23)CC1` [Compound 79, (2S,4R)-N-[(2-{[14-({1-[(2R)-2-{[6-chloro-8-fluoro-7-(3-hydroxynaphthalen-1-yl)-4-[4-(prop-2-enoyl)piperazin-1-yl]quinazolin-2-yl]oxy}propyl]piperidin-4-yl}oxy)-3,6,9,12-tetraoxatetradecan-1-yl]oxy}-4-(4-methyl-1,3-thiazol-5-yl)phenyl)methyl]-4-hydroxy-1-[(2S)-3-methyl-2-(3-methyl-1,2-oxazol-5-yl)butanoyl]pyrrolidine-2-carboxamide], the DC50 is over 1 µM.

In the case of `C=CC(=O)N1CCN(c2nc(O[C@H](C)CN3CCC(OCCOCCOc4cc(-c5scnc5C)ccc4CNC(=O)[C@@H]4C[C@@H](O)CN4C(=O)[C@@H](c4cc(C)no4)C(C)C)CC3)nc3c(F)c(-c4cc(O)cc5ccccc45)c(Cl)cc23)CC1` [Compound 72, (2S,4R)-N-[(2-{2-[2-({1-[(2R)-2-{[6-chloro-8-fluoro-7-(3-hydroxynaphthalen-1-yl)-4-[4-(prop-2-enoyl)piperazin-1-yl]quinazolin-2-yl]oxy}propyl]piperidin-4-yl}oxy)ethoxy]ethoxy}-4-(4-methyl-1,3-thiazol-5-yl)phenyl)methyl]-4-hydroxy-1-[(2R)-3-methyl-2-(3-methyl-1,2-oxazol-5-yl)butanoyl]pyrrolidine-2-carboxamide], the DC50 was over 1 µM.
